Test results published in publication PMC4301998 (Bioorganic & medicinal chemistry, 2014).
Where two headings read alike, the source gives them in different places.

Assays:
[1] = tested on: S1-M1-80 cells (G482 mutant ABCG2-overexpressing); assay: MTT cytotoxicity in drug-resistant colon cancer cells; format: cell-based, human; conditions: S1-M1-80 vs S1, MTT; p < 0.001
HCT-116 cells = assay: Chromosomal DNA fragmentation assay; format: cell-based, human; conditions: 2.5 μM, 6 hr
[2] = tested on: HEK293/R2 (ABCG2-overexpressing cells); assay: MTT cytotoxicity in ABCG2-overexpressing cells; format: cell-based, human; conditions: HEK293/R2 vs HEK293/pcDNA3.1, MTT
HEK293/ABCB1 cells = assay: MTT cytotoxicity in ABCB1-overexpressing cells; format: cell-based, human; conditions: HEK293/ABCB1 vs HEK293/pcDNA3.1, MTT
human PXR = molecular target: T1, human PXR (Homo sapiens, UniProt O75469); assay: PXR transactivation assay; conditions: HepG2 reporter gene assay, 24 hr treatment, vs DMSO; IND-2 at 1 or 10 μM
T1 sequence (O75469 1-434): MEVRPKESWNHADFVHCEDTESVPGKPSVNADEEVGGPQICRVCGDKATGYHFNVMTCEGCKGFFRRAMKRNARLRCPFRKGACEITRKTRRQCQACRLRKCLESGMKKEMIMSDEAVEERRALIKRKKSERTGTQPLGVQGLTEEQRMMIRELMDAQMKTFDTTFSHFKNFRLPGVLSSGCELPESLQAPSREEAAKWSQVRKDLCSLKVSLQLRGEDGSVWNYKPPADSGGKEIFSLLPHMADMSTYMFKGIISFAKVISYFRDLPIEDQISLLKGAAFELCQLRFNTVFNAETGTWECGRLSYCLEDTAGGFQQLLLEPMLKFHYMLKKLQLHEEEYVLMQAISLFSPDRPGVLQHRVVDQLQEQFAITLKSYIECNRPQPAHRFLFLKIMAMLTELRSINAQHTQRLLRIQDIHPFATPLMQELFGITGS

[3] = tested on: HCT-116 colon cancer cells; assay: MTT cell survival assay, HCT-116; format: cell-based; conditions: Homo sapiens, HCT-116, read-out: IC50 ± SD, HCT-116
[4] = tested on: nine human cancer cell lines and three non-cancerous cell lines; additional colon cancer cells; assay: MTT cell survival assay, statements over several cell lines; format: cell-based; conditions: for IC50: Homo sapiens
[5] = tested on: HCT-116, HCT-15, and HEK293 cells; assay: Morphological analysis by microscopy; format: cell-based, human; conditions: 0, 0.5, 2, or 10 μM, 68 hrs of treatment; HCT-116, HCT-15, HEK293
HepG2 cells = conditions: 24 hr, CellTiter-Glo

Compound: CCc1c2c(nc3ccc(O)cc13)-c1cc3c(c(=O)n1C2)COC(=O)[C@]3(O)CC [SN-38]
- resistance of S1-M1-80 cells to the drug [1]: significant resistance

Compound: CC[C@@]1(O)C(=O)OCc2c1cc1n(c2=O)Cc2cc3c(CN(C)C)c(O)ccc3nc2-1 [topotecan]
- resistance of S1-M1-80 cells to the drug [1]: significant resistance

Compound: Cc1cc(Cl)n2nc3nc4ccccc4cc3c2n1 [IND-2, 4-Chloro-2-methyl pyrimido[1“,2”:1,5]pyrazolo[3,4-b]quinoline]
- fragmentation of chromosomal DNA (HCT-116 cells): led to fragmentation of chromosomal DNA
- resistance of ABCG2-overexpressing cells [2]: no substantial resistance
- resistance of ABCB1-overexpressing cells (HEK293/ABCB1 cells): no substantial resistance
- PXR transactivation of CYP3A4 promoter activity (human PXR): did not affect PXR transactivation
- IC50 [3]: 634 ± 120 nM
- IC50 ([4]; DU-145, read-out: IC50 values against prostate cancer cells): 800 to 1200 nM
- IC50 ([4]; read-out: IC50 values on colon cancer cells): < 1000 nM
- selectivity for inhibition of colon cancer cells relative to HEK293 cells ([4]; colon cancer cells vs HEK293): 10-15 fold
- selectivity relative to NIH/3T3 mouse fibroblast cells and MDCK cells ([4]; colon cancer cells vs NIH/3T3 and MDCK): 20-40 fold
- selectivity for colon cancer cells relative to other cancer cells ([4]; vs breast, ovarian, and hepatocellular carcinoma cells): 10-30 fold
- morphological changes of cells [5]: morphological changes
- HepG2 cell viability (cytotoxicity) (HepG2 cells; 1 μM): non-cytotoxic
- HepG2 cell viability (cytotoxicity) (HepG2 cells; 10 μM): marginally cytotoxic

Compound: Cc1cc(=O)n2nc3nc4ccccc4cc3c2[nH]1 [IND-1, 2-Methylpyrimido[1”,2”:1,5]pyrazolo[3,4-b]quinoline-4(1H)-one]
- IC50 ([4]; read-out: IC50 on the tested cells): > 40000 nM

Compound: Cc1cc(N(C)C)n2nc3nc4ccccc4cc3c2n1 [IND-3, N,N,2-Trimethyl benzopyrido[2’,3’:3,4]pyrazolo[1,5-a]pyrimidin-4-amine]
- IC50 ([4]; read-out: IC50 values against ovarian and breast cancer cells): 44000 to 50000 nM
